Data taken from the NIST ThermoML archive (doi:10.1021/je0601513).
Numbers after ± are expanded uncertainties.

Assays:
[1] = molar heat capacity at constant pressure; conditions: 101.33 kPa, Liquid, Small sample (50 mg) DSC
[2] = refractive index (Na D-line) (dimensionless); conditions: 101.33 kPa, Liquid, Standard Abbe refractometry
[3] = 101.33 kPa, Liquid; for viscosity: Capillary tube (Ostwald / Ubbelohde) method

Row | molar heat capacity at constant pressure ([1]; 288.15 K) | molar heat capacity at constant pressure ([1]; 298.15 K) | molar heat capacity at constant pressure ([1]; 308.15 K) | refractive index ([2]; 288.15 K) | refractive index ([2]; 298.15 K) | refractive index ([2]; 308.15 K) | mass density ([3]; 288.15 K) | viscosity ([3]; 288.15 K) | mass density ([3]; 298.15 K) | viscosity ([3]; 298.15 K) | mass density ([3]; 308.15 K) | viscosity ([3]; 308.15 K) | molar heat capacity at constant pressure ([1]; 293.15 K) | molar heat capacity at constant pressure ([1]; 303.15 K) | molar heat capacity at constant pressure ([1]; 313.15 K) | molar heat capacity at constant pressure ([1]; 318.15 K) | molar heat capacity at constant pressure ([1]; 323.15 K) | molar heat capacity at constant pressure ([1]; 328.15 K) | molar heat capacity at constant pressure ([1]; 333.15 K) | SMILES
1 | 146.8 ± 2.3 J/K/mol | 152.4 ± 2.4 J/K/mol | 154.6 ± 2.4 J/K/mol | 1.4835 ± 0.0007 | 1.4778 ± 0.0006 | 1.473 ± 0.0006 | 1105.39 ± 0.47 kg/m3 | 2.473 ± 0.029 mPa·s | 1095.36 ± 0.45 kg/m3 | 1.989 ± 0.023 mPa·s | 1085.31 ± 0.43 kg/m3 | 1.644 ± 0.019 mPa·s |  |  |  |  |  |  |  | C[S+](C)[O-] [dimethyl sulfoxide]
2 | 139 ± 2 J/K/mol | 144.9 ± 2.2 J/K/mol | 151 ± 2.3 J/K/mol | 1.3893 ± 0.0007 | 1.3837 ± 0.0006 | 1.3795 ± 0.0005 | 807.51 ± 0.28 kg/m3 | 2.498 ± 0.028 mPa·s | 799.54 ± 0.29 kg/m3 | 1.952 ± 0.022 mPa·s | 791.41 ± 0.3 kg/m3 | 1.564 ± 0.018 mPa·s | 142.3 ± 2.2 J/K/mol | 148.2 ± 2.3 J/K/mol | 153.7 ± 2.4 J/K/mol | 157.1 ± 2.4 J/K/mol | 160.1 ± 2.5 J/K/mol | 164.5 ± 2.6 J/K/mol | 167.8 ± 2.6 J/K/mol | CCCO [propan-1-ol]
